Test results taken from patent EP1175222B1, “MONTHLY DOSES OF GLYCOPEPTIDE ANTIBIOTICS FOR LONG-TERM PREVENTION OF STREPTOCOCCUS PNEUMONIAE INFECTIONS” (ELI LILLY AND COMPANY, priority 1999, dated 2000).
Values after ≈ are worked out from the molar mass of the structure shown. Like-named read-outs stand apart in the source and are kept apart here.

Columns and labels:
[1] = test system: S pneumoniae Park I; test: Mouse protection model, intraperitoneal bacterial challenge; format: in vivo; settings: mice; dose protecting 50% from lethal infection; two subcutaneous doses 1 and 5 hours after challenge
Method: (§1) As listed in Table 2, N^DISACC-(4-(4-chlorophenyl)benzyl)A82846B appeared to have activity 30 to 40 times that of vancomycin when given subcutaneously to mice with systemic streptococcal or staphylococcal infections. […] In a murine model of systemic infection, various dosing regimens of N^DISACC-(4-(4-chlorophenyl)benzyl)A82846B administered subcutaneously were compared in animals inoculated intraperitoneally with either S pneumoniae or S aureus. The total dose ranged from 0.18 to 2.01 mg/kg body weight, subdivided into 1 to 24 doses during a 48-hour treatment period. Pharmacokinetic studies were performed in uninfected animals using a bioassay. Using multiple regression analysis to find the pharmacodynamic parameter associated with survival, time above the MIC appeared-to be more important (p<0.00001) than the maximum plasma concentration Cmax (p=0.01); however, for 1- and 2-dose regimens near the ED50, Cmax appeared to be the best predictor of outcome. A more detailed description of this study may be found in Knudsen, J., et al., "Pharmacodynamics of glycopeptides in Animal Models" Abstracts of the 20th International Congress of Chemotherapy, Abstract No. 4076, June (1997). […]

[2] = test system: S pyogenes C-203; test: as above; format: in vivo; settings: mice; dose protecting 50% from lethal infection; two subcutaneous doses 1 and 5 hours after challenge
Method: as §1

[3] = test system: Streptococcus pneumoniae; test: MIC90 by NCCLS broth microdilution against a worldwide collection of Streptococcus pneumoniae; format: cell-based
Method: (§2) The term "MIC" or "minimum inhibitory concentration" refers to the lowest concentration of the agent that prevents visible growth after 18 to 24 hours of incubation. "MIC90" refers to the lowest concentration of the agent that prevents 90% growth after 18 to 24 hours of incubation. "MBC" or "minimal bactericidal concentration" refers to the lowest concentration that results in a 99.9% decline in bacterial numbers. Although the value of the MBC as a clinical test has not been established, it may be useful in special instances where very precise knowledge of the ability of a given antimicrobial agent to kill a specific clinical isolate is critical, as in the therapy of bacterial endocarditis.
Table 1 lists the in vitro activity of N^DISACC-(4-(4-chlorophenyl)benzyl)A82846B and other compounds against a worldwide collection of Streptococcus pneumoniae. N^DISACC-(4-(4-chlorophenyl)benzyl)A82846B clearly demonstates a significant improvement against all three strains. […]
MICs were determined using NCCLS broth microdilution methodology (see, Fasola E., Spangler SK., Ednie LM., Jacobs MR., Bajaksouzian S., and Appelbaum PC., "Comparative activities of LY 333328 against penicillin-susceptible and -resistant pneumococci" Antimicrobial Agents & Chemotherapy, 40(11), 2661-3 (1996)).

[4] = test system: penicillin-sensitive S. pneumoniae type 3 strain; test: In-vivo rabbit model of S. pneumoniae meningitis (CSF measurements); settings: rabbits
Method: (§3) At 12 h after infection, they were treated with a single dose of N^DISACC-(4-(4-chlorophenyl)benzyl)A82846B [1 mg/kg (n = 5), 2.5 mg/kg (n = 5), 10 mg/kg (n = 10), […] (n = 2)] . N^DISACC-(4-(4-chlorophenyl)benzyl)A82846B was dissolved in 5% glucose and infused over 30 min. Controls received a bolus of ceftriaxone (20 mg/kg body weight) followed by a continuous infusion of 10 mg/kg/h (n = 12). The cerebrospinal fluid (CSF) was drawn at 12, 14, 17, 20, and 24h for the determination of bacterial titers, leukocyte densities, lipoteichoic/teichoic acid, lactate and protein concentrations. The concentration of the neuron-specific enolase in CSF was measured at 24h. Bactericidal activity in CSF was estimated by log-linear regression of bacterial titers versus time. Additionally, time-kill curves were performed with 10 mg/l N^DISACC-(4-(4-chlorophenyl)benzyl)A82846B.

[5] = test system: S.pneumoniae; test: In vitro time-kill curves; format: cell-based; settings: 10 mg/l
Method: as §3

[6] = test system: S aureus SA027; test: Mouse protection model, intraperitoneal bacterial challenge; format: in vivo; settings: mice; dose protecting 50% from lethal infection; two subcutaneous doses 1 and 5 hours after challenge
Method: as §1

[7] = set-up: species or system rats; settings: rat, in vivo, 5 mg/kg
From the text: Although single doses of N^DISACC-(4-(4-chlorophenyl)benzyl)A82846B may provide high plasma concentrations for a prolonged period of time, it may also be highly desirable to maintain high concentrations in respiratory tissues (the main portal of initial tissue infection and invasion).

[8] = test system: penicillin-sensitive S. pneumoniae type 3 strain; test: MIC and MBC for the meningitis model strain; format: cell-based; settings: penicillin-sensitive type 3 strain
Method: as §2
as §3, with “Bactericidal activity in CSF was estimated by log-linear regression of bacterial titers versus time. Additionally, time-kill curves were performed with 10 mg/l N^DISACC-(4-(4-chlorophenyl)benzyl)A82846B.” left out

[9] = Safety and pharmacokinetics of single intravenous doses in eight healthy men; format: in vivo
Method: An open-label, uncontrolled, dose-escalation study was conducted with eight healthy men. All subjects were between 22 and 50 years of age and within 10% of their ideal body weights. Single does, ranging from 0.5 mg/kg body weight to 3 mg/kg body weight, were administered intravenously over 30 minutes. Plasma samples were collected just prior to the start of infusion and at intervals for 336 hours after the end of the infusion for assessment of drug concentration, biochemical and hematologic parameters. N^DISACC-(4-(4-chlorophenyl)benzyl) A82846B plasma and urine concentrations were determined by HPLC and competitive binding radioimmunoassay, respectively. Individual plasma concentration-time profiles were evaluated based on compartmental analysis techniques.

[10] = test system: S. pneumoniae; test: Neutropenic model of S. pneumoniae bacteremia in mice; format: in vivo; settings: subcutaneously or intravenously at doses ≥ 5 mg/kg body weight
[11] = set-up: species or system mice; settings: mouse, in vivo, sc
Method: as §1

[12] = Streptococcus pneumoniae, Intermediate N = 40 (penicillin-intermediate by NCCLS criteria), read-out: MIC90
[13] = Streptococcus pneumoniae, Resistant N = 42 (penicillin-resistant by NCCLS criteria), read-out: MIC90
[14] = Streptococcus pneumoniae, Sensitive N = 50 (penicillin-sensitive by NCCLS criteria), read-out: MIC90
[15] = Intermediate N = 40 (penicillin-intermediate by NCCLS criteria)
[16] = Resistant N = 42 (penicillin-resistant by NCCLS criteria)
[17] = Sensitive N = 50 (penicillin-sensitive by NCCLS criteria)
[18] = estimated by Lineweaver-Burk plot
[19] = healthy men, single i.v. dose 0.5 to 3 mg/kg over 30 minutes
[20] = healthy men, single i.v. dose 0.5 to 3 mg/kg over 30 minutes, normalized to dose and weight

`CN[C@H](CC(C)C)C(=O)N[C@H]1C(=O)N[C@@H](CC(N)=O)C(=O)N[C@H]2C(=O)N[C@H]3C(=O)N[C@H](C(=O)N[C@H](C(=O)O)c4cc(O)cc(O)c4-c4cc3ccc4O)[C@H](O[C@H]3C[C@](C)(N)[C@@H](O)[C@H](C)O3)c3ccc(c(Cl)c3)Oc3cc2cc(c3O[C@@H]2O[C@H](CO)[C@@H](O)[C@H](O)[C@H]2O[C@H]2C[C@](C)(N)[C@@H](O)[C@H](C)O2)Oc2ccc(cc2Cl)[C@H]1O` [A82846B] showed an ED50 [1] of 0.18 mg/kg/dose and an ED50 [2] of 0.18 mg/kg/dose.

With `CO/N=C(\C(=O)N[C@@H]1C(=O)N2C(C(=O)O)=C(CSc3nc(=O)c(=O)[nH]n3C)CS[C@H]12)c1csc(N)n1` [Ceftriaxone] the MIC90 [3, 12] was 0.5 µg/mL (≈ 0.902 µM), the MIC90 [3, 13] was 2 µg/mL (≈ 3.61 µM) and the MIC90 [3, 14] was 0.06 µg/mL (≈ 0.108 µM). The “bactericidal activity in CSF, Δlog CFU/ml/h ± SD” value ([4]; bolus 20 mg/kg body weight then continuous infusion of 10 mg/kg/h) was -0.33 ± 0.15 Δlog CFU/ml/h and the “time until S.pneumoniae killed / cultures sterile” value [5] was 12 h.

Work on `C[C@@H](O)[C@H]1C(=O)N2C(C(=O)O)=C(SCCN=CN)C[C@H]12` [Imipenem] yielded an MIC90 [3, 12] of 0.125 µg/mL (≈ 0.418 µM), an MIC90 [3, 13] of 0.5 µg/mL (≈ 1.67 µM) and an MIC90 [3, 14] of 0.03 µg/mL (≈ 0.1 µM).

Work on `CC1(C)S[C@@H]2[C@H](NC(=O)Cc3ccccc3)C(=O)N2[C@H]1C(=O)O` [Penicillin G] yielded an MIC90 [3, 15] of 1.0 µg/mL (≈ 2.99 µM), an MIC90 [3, 16] of 4.0 µg/mL (≈ 12 µM) and an MIC90 [3, 17] of 0.06 µg/mL (≈ 0.179 µM).

Compound `CO[C@H]1/C=C/O[C@@]2(C)Oc3c(C)c(O)c4c(O)c(c(/C=N/N5CCN(C)CC5)c(O)c4c3C2=O)NC(=O)/C(C)=C\C=C\[C@H](C)[C@H](O)[C@@H](C)[C@@H](O)[C@@H](C)[C@H](OC(C)=O)[C@@H]1C` [Rifampin] has an MIC90 [3, 12] of 0.015 µg/mL (≈ 0.0182 µM), an MIC90 [3, 13] of over 8 µg/mL and an MIC90 [3, 14] of 0.03 µg/mL (≈ 0.0365 µM).

`CN[C@H](CC(C)C)C(=O)N[C@H]1C(=O)N[C@@H](CC(N)=O)C(=O)N[C@H]2C(=O)N[C@H]3C(=O)N[C@H](C(=O)N[C@H](C(=O)O)c4cc(O)cc(O)c4-c4cc3ccc4O)[C@H](O)c3ccc(c(Cl)c3)Oc3cc2cc(c3O[C@@H]2O[C@H](CO)[C@@H](O)[C@H](O)[C@H]2O[C@H]2C[C@](C)(N)[C@H](O)[C@H](C)O2)Oc2ccc(cc2Cl)[C@H]1O` [Vancomycin] showed an MIC90 [3, 15] of 0.5 µg/mL (≈ 0.345 µM), an MIC90 [3, 16] of 0.5 µg/mL (≈ 0.345 µM) and an MIC90 ([3]; Streptococcus pneumoniae) of 0.5 µg/mL (≈ 0.345 µM). The ED50 [6] was 0.70 mg/kg/dose, the ED50 [1] was 1-1 mg/kg/dose and the ED50 [2] was 0.80 mg/kg/dose.

Work on “N^DISACC-(4-(4-chlorophenyl)benzyl)A82846B” yielded an MIC90 [3, 15] of 0.015 µg/mL, an MIC90 [3, 16] of 0.03 µg/mL and an MIC90 [3, 17] of 0.008 µg/mL. The ED50 [6] was 0.009 mg/kg/dose, the ED50 [1] was 0.028 mg/kg/dose and the ED50 [2] was 0.045 mg/kg/dose. For the same compound, the “lung tissue half life” value [7] was 29 days, the “mean concentration of the neuron-specific enolase in CSF at 24h” value ([4]; 10 mg/kg body weight, parameter of neuronal damage, p = 0.14 vs ceftriaxone) was 92.3 ± 68.7 and the “half-maximal dose (KD)” value [4, 18] was 5.3 mg/kg body weight. The “maximum bactericidal rate (Emax)” value [4, 18] was -0.88 Δlog CFU/ml/h, the “bactericidal activity in CSF, Δlog CFU/ml/h ± SD” value ([4]; single dose of 1 mg/kg body weight (only bacteriostatic)) was 0.01 ± 0.11 Δlog CFU/ml/h and the “bactericidal activity in CSF, Δlog CFU/ml/h ± SD” value ([4]; single dose of 2.5 mg/kg) was -0.26 ± 0.22 Δlog CFU/ml/h. For the same compound, the “bactericidal activity in CSF, Δlog CFU/ml/h ± SD” value ([4]; single dose of 10 mg/kg body weight 12 h after infection) was -0.29 ± 0.21 Δlog CFU/ml/h, the “Protein, lactate and lipoteichoic/teichoic acid concentrations in CSF” value ([4]; single dose of 10 mg/kg body weight compared with ceftriaxone 10 mg/kg/h) was “no significant differences” and the “bactericidal activity in CSF, Δlog CFU/ml/h” value ([4]; single dose of 40 mg/kg) was -0.52 ± 0.02 Δlog CFU/ml/h. The MBC [8] was 0.03 µg/mL, the MIC [8] was 0.015 µg/mL and the “terminal t1/2” value ([9]; healthy men, single i.v. doses, to be interpreted cautiously) was 10.5 days. For the same compound, the “area under the terminal phase as share of total AUC0-∞” value ([9]; human, in vivo, iv) was “approximately 50%”, the effect on bacteremia [10] was “eliminated bacteremia” and the “absorption following subcutaneous administration” value [11] was “absorbed poorly”. For the same compound, the “time until S.pneumoniae killed / cultures sterile” value [5] was at most 1 h.

For “N^DISACC-(4-(4-chlorophenyl)benzyl)A82846B Diphosphate”, the “% dose excreted in urine, Mean (%CV)” value [9, 19] was 3.1 (42) %, the “T1/2, Mean (%CV)” value [9, 19] was 251 (96) hr and the “AUC0-∞, Mean (%CV)” value [9, 20] was 201 (62) (µg hr/ml)/(mg/kg). For the same compound, the “Cmax, Mean (%CV)” value [9, 20] was 16.5 (20) (µg/ml)/(mg/kg), the “Clp, Mean (%CV)” value ([9]; healthy men, single i.v. dose 0.5 to 3 mg/kg over 30 minutes, plasma clearance) was 0.0896 (30) ml/min/kg and the “Vss, Mean (%CV)” value ([9]; healthy men, single i.v. dose 0.5 to 3 mg/kg over 30 minutes, steady-state volume of distribution) was 1.08 (45) 1/kg.

Teicoplanin showed an MIC90 [3, 15] of 0.06 µg/mL, an MIC90 [3, 16] of 0.06 µg/mL and an MIC90 [3, 17] of 0.06 µg/mL.
